Laboratory results from patent publication US8735414B2 (priority 2009, dated 2014).

What was measured:
[1] = tested on: bicistronic HCV replicon (replicon RNA, GenBank Accession No. AJ242654); experiment: HCV Replicon Assay; format: cell-based; details: Hepatitis C virus, 72 h, read-out: Replicon IC50

Row | SMILES | IC50 [1] [nM] | melting point [°C]
1 | Cc1cc2c(cc1F)c(C(N)=O)c(-c1ccc(S(=O)(=O)N[C@@H](C)C(F)(F)F)cn1)n2-c1cnccn1 [compound 875, 5-fluoro-6-methyl-1-(pyrazin-2-yl)-2-(5-{[(2S)-1,1,1-trifluoropropan-2-yl]sulfamoyl}pyridin-2-yl)-1H-indole-3-carboxamide] | < 500 | 162 to 169
2 | Cc1cc2c(cc1Cl)c(C(N)=O)c(-c1ccc(S(=O)(=O)N[C@@H](C)C(F)(F)F)cn1)n2C1CCC1 [compound 734, 5-chloro-1-cyclobutyl-6-methyl-2-(5-{[(2S)-1,1,1-trifluoropropan-2-yl]sulfamoyl}pyridin-2-yl)-1H-indole-3-carboxamide] | < 500 | 207 to 209
3 | N#Cc1ccc2c(C#N)c(-c3ncc(S(=O)(=O)NC(CF)CF)cn3)n(C3CCC3)c2c1 [compound 466, 2-(3,6-dicyano-1-cyclobutyl-1H-indol-2-yl)-N-(1,3-difluoropropan-2-yl)pyrimidine-5-sulfonamide] | < 500 | 240 to 241
4 | CCc1cc2c(cc1F)c(C#N)c(-c1ccc(S(=O)(=O)N[C@@H](C)C(F)(F)F)cn1)n2-c1cccnc1 [compound 954, 6-[3-cyano-6-ethyl-5-fluoro-1-(pyridin-3-yl)-1H-indol-2-yl]-N-[(2S)-1,1,1-trifluoropropan-2-yl]pyridine-3-sulfonamide] | < 500 | 205 to 212
5 | N#Cc1c(-c2ccc(S(=O)(=O)NC(CF)CF)cn2)n(-c2ccccc2F)c2cc(OC(F)F)ccc12 [compound 227, 6-[3-cyano-6-(difluoromethoxy)-1-(2-fluorophenyl)-1H-indol-2-yl]-N-(1,3-difluoropropan-2-yl)pyridine-3-sulfonamide] | < 500 | 188 to 191
6 | Cc1ccc2c(C#N)c(-c3ccc(S(=O)(=O)N[C@@H](C)C(F)(F)F)cn3)n(C3CCCCC3)c2c1 [compound 354, 6-(3-cyano-1-cyclohexyl-6-methyl-1H-indol-2-yl)-N-[(2S)-1,1,1-trifluoropropan-2-yl]pyridine-3-sulfonamide] | < 500 | 207 to 212
7 | NC(=O)c1c(-c2ccc(S(=O)(=O)Nc3ccccc3)cn2)n(C2CCC2)c2cc(OC(F)F)c(F)cc12 [compound 798, 1-cyclobutyl-6-(difluoromethoxy)-5-fluoro-2-[5-(phenylsulfamoyl)pyridin-2-yl]-1H-indole-3-carboxamide] | 500 to 2000 | 204 to 206
8 | Cc1cc2c(cc1O)c(C#N)c(-c1ccc(S(=O)(=O)N[C@H](C)C(F)(F)F)cn1)n2C1CCC1 [compound 807, 6-(3-cyano-1-cyclobutyl-5-hydroxy-6-methyl-1H-indol-2-yl)-N-[(2R)-1,1,1-trifluoropropan-2-yl]pyridine-3-sulfonamide] | < 500 | 209 to 210
9 | N#Cc1c(-c2ccc(S(=O)(=O)NC(CF)CF)cn2)n(-c2ccccn2)c2cc(C3CC3)ccc12 [compound 501, 6-[3-cyano-6-cyclopropyl-1-(pyridin-2-yl)-1H-indol-2-yl]-N-(1,3-difluoropropan-2-yl)pyridine-3-sulfonamide] | < 500 | 210 to 213
10 | Cc1cc2c(C(N)=O)c(-c3ccc(S(=O)(=O)N[C@@H](C)C(F)(F)F)cn3)n(-c3ncccn3)c2cc1F [compound 918, 6-fluoro-5-methyl-1-(pyrimidin-2-yl)-2-(5-{[(2S)-1,1,1-trifluoropropan-2-yl]sulfamoyl}pyridin-2-yl)-1H-indole-3-carboxamide] | 2000 to 5000 | 245 to 249
11 | N#Cc1c(-c2ncc(S(=O)(=O)NC(CF)CF)cn2)n(C2CCC2)c2cc(OC(F)F)ccc12 [compound 129, 2-[3-cyano-1-cyclobutyl-6-(difluoromethoxy)-1H-indol-2-yl]-N-(1,3-difluoropropan-2-yl)pyrimidine-5-sulfonamide] | < 500 | 205 to 207
12 | COc1ccc2c(C#N)c(-c3ncc(S(=O)(=O)NC(CF)CF)cn3)n(C3CCCC3)c2c1 [compound 231, 2-(3-cyano-1-cyclopentyl-6-methoxy-1H-indol-2-yl)-N-(1,3-difluoropropan-2-yl)pyrimidine-5-sulfonamide] | < 500 | 232 to 234
13 | C[C@H](NS(=O)(=O)c1ccc(-c2c(C#N)c3cc(F)ccc3n2CC2CC2)nc1)C(F)(F)F [compound 436, 6-[3-cyano-1-(cyclopropylmethyl)-5-fluoro-1H-indol-2-yl]-N-[(2S)-1,1,1-trifluoropropan-2-yl]pyridine-3-sulfonamide] | < 500 | 165 to 167
14 | Cc1ccc2c(c1)c(C#N)c(-c1ncc(S(=O)(=O)NC(CF)CF)cn1)n2C1CCCC1 [compound 160, 2-(3-cyano-1-cyclopentyl-5-methyl-1H-indol-2-yl)-N-(1,3-difluoropropan-2-yl)pyrimidine-5-sulfonamide] | < 500 | 202 to 207
15 | C[C@H](NS(=O)(=O)c1ccc(-c2c(C#N)c3cc(C#N)ccc3n2C2CCCC2)nc1)C(F)(F)F [compound 346, 6-(3,5-dicyano-1-cyclopentyl-1H-indol-2-yl)-N-[(2S)-1,1,1-trifluoropropan-2-yl]pyridine-3-sulfonamide] | < 500 | 225 to 228
16 | CCS(=O)(=O)Nc1ccc(-c2c(C#N)c3ccc(C4CC4)cc3n2C2CCC2)cn1 [compound 288, N-[5-(3-cyano-1-cyclobutyl-6-cyclopropyl-1H-indol-2-yl)pyridin-2-yl]ethanesulfonamide] | 500 to 2000 | 241 to 243
17 | CCc1cc2c(cc1F)c(C(N)=O)c(-c1ccc(S(=O)(=O)N[C@@H](C)C(F)(F)F)cn1)n2-c1cnccn1 [compound 994, 6-ethyl-5-fluoro-1-(pyrazin-2-yl)-2-(5-{[(2S)-1,1,1-trifluoropropan-2-yl]sulfamoyl}pyridin-2-yl)-1H-indole-3-carboxamide] | < 500 | 120 to 127
18 | CC(=O)c1ccc(-n2c(-c3ccc(S(=O)(=O)N[C@@H](C)C(F)(F)F)cn3)c(C#N)c3cc(F)c(C)cc32)s1 [compound 1035, 6-[1-(5-acetylthiophen-2-yl)-3-cyano-5-fluoro-6-methyl-1H-indol-2-yl]-N-[(2S)-1,1,1-trifluoropropan-2-yl]pyridine-3-sulfonamide] | 500 to 2000 | 235.6 to 238.7
19 | CC(C)n1c(-c2ncc(S(=O)(=O)N[C@@H](C)C(F)(F)F)cn2)c(C#N)c2ccc(OC(F)F)cc21 [compound 399, 2-[3-cyano-6-(difluoromethoxy)-1-(propan-2-yl)-1H-indol-2-yl]-N-[(2S)-1,1,1-trifluoropropan-2-yl]pyrimidine-5-sulfonamide] | < 500 | 219 to 221
20 | Cc1ccc2c(c1)c(C#N)c(-c1ccc(S(=O)(=O)N[C@@H](C)C3CC3)cn1)n2C(C)C [compound 564, 6-[3-cyano-5-methyl-1-(propan-2-yl)-1H-indol-2-yl]-N-[(1S)-1-cyclopropylethyl]pyridine-3-sulfonamide] | < 500 | 170 to 173
